From publication PMC10055926
Entries after “also recorded” stand apart in the source; their conditions may differ.

System: SARS-CoV-2 Omicron variant (B.1.1.529-BA.1)
Format: cell-based
Conditions: up to 20 µM; Omicron B.1.1.529-BA.1

## C[C@H](NC(=O)[C@H](Cc1ccc(O)cc1)NC(=O)OCc1ccccc1)C(=O)C=[N+]=[N-]
  inhibitory activity against SARS-CoV-2 Omicron in HNEC ALI cultures (in words): no inhibitory activity; also recorded: unable to block entry
